Laboratory results taken from US12630517B2, “Process for preparing large size isoxazoline particles” (Intervet Inc., priority 2017, dated 2026).

Columns and labels:
Type in all cases: physicochemical
[1] = Volume weighted particle size distribution by laser diffraction (Sympatec Helos); conditions: for x50/d50 particle size dimension at end of recycle loop: in-process slurry at 54° C., after the recycle loop, before final cooling
Excerpt: As used herein, particle size data reported are volume weighted as measured by conventional particle techniques well known to those skilled in the art, such as static light scattering (also known as laser diffraction), image analysis or sieving. More discussion of particle size measurement is provided below.
The volume weighted particle size can be measured by sieving, microscopy or laser diffraction (Malvern or Sympatec) The volume weighted particle size measurement can be performed with a Malvern Mastersizer 2000 with the Hydro 2000G measuring cell, or with a Horiba LA-910 laser scattering particle size distribution analyzer. The volume weighted particle size can be measured by a Sympatec Helos instrument.
(§1) The volume weighted particle size of the fluralaner crystals was measured by laser diffraction (Sympatec Helos) to determine the particle size distribution. The mechanical resiliency was also determined during a pressure titration experiment. […] In this case, this material is the product of the previous commercial process using an unseeded, distillative crystallization process from an ethyl acetate, toluene solvent system. Of note is the lower particle size and general wider distribution of sizes of the particles.

[2] = Particle size by wet method, Microtrac static light scattering; conditions: FIG. 13
Experimental: FIG. 13—Particle size distribution of the material made from Example 4. […] The particle size measurement for this sample was conducted with a wet method using a Microtrac static light scattering system.

[3] = Pressure titration for mechanical resiliency (Sympatec HELOS), 1 to 3 bar dispersion pressure; conditions: for reduction in x50/d50 from the pressure titration from 1 bar to 3 bar: dried particles of the example (FIG. 10, FIG. 15)
Excerpt: Mechanical resiliency is the resistance of crystals or particles to break into smaller crystals or particles when exposed to pressure or stress from other sources. Mechanical resiliency can be measured by a pressure titration using the Sympatec HELOS. This instrument can simultaneously measure the particle size distribution. In this experiment, pressure is applied to the crystals to disperse or separate them one from another. The change in the particle size distribution measurement of d50 is monitored as the pressure on the crystals is increased from 1 bar to 3 bars. Preferably, the isoxazoline compound particles of the subject invention will not decrease their particle size distribution measurement of d50 by more than 30-40% when the dispersion pressure is increased from 1 to 3 bar.
as §1
In this experiment, the particle size distribution was monitored as the particles are exposed to increasing pressure from 1 bar to 3 bar. […] Moreover, the particle size distribution curve broadens and shifts towards smaller particle sizes. This is evidence that these particles are being broken under the increased pressure and is an indication that the particles were very thin.

[4] = Scanning electron microscopy of particles
Excerpt: Scanning electron microscopy (SEM) is an analytical instrument that uses a focused beam of high-energy electrons to generate a variety of signals at the surface of solid specimens. The signals reveal information about the sample including external morphology (texture), chemical composition, and crystalline structure and orientation of materials making up the sample. FIG. 8 is a scanning electron microscopy image of fluralaner particles that were not produced the inventive process. Of note is that these crystals are rather thin. FIG. 9 is a scanning electron microscopy image of fluralaner particles that were produce by the inventive process. In contrast to the particles shown in FIG. 8, these particles are large (around 100 μm) and thick (around 10-20 μm).

[5] = FIG. 9, particles produced by the inventive process

Cc1cc(C2=NOC(c3cc(Cl)cc(Cl)c3)(C(F)(F)F)C2)ccc1C(=O)NCC(=O)NCC(F)(F)F (stereo not drawn) [Example 4]
x50/d50 particle size dimension at end of recycle loop [1]: approximately 40 μm | d10 [2]: 47.3 μm | d50 [2]: 103 μm | d90 [2]: 158.8 μm

Cc1cc(C2=NOC(c3cc(Cl)cc(Cl)c3)(C(F)(F)F)C2)ccc1C(=O)NCC(=O)NCC(F)(F)F (stereo not drawn) [Example 3]
x50 of resulting material ([1]; FIG. 10, dried particles): 108 | x50/d50 particle size dimension at end of recycle loop [1]: approximately 45 μm | reduction in x50/d50 from the pressure titration from 1 bar to 3 bar [3]: approximately 24%

Cc1cc(C2=NOC(c3cc(Cl)cc(Cl)c3)(C(F)(F)F)C2)ccc1C(=O)NCC(=O)NCC(F)(F)F (stereo not drawn) [Example 1]
x50/d50 particle size dimension at end of recycle loop [1]: approximately 40 μm

Cc1cc(C2=NOC(c3cc(Cl)cc(Cl)c3)(C(F)(F)F)C2)ccc1C(=O)NCC(=O)NCC(F)(F)F (stereo not drawn) [fluralaner, 4-[5-(3,5-Dichlorophenyl)-5-trifluoromethyl-4,5-dihydroisoxazol-3-yl]-2-methyl-N-[(2,2,2-trifluoro-ethylcarbamoyl)-methyl]-benzamide]
particle size (x50) at 2 bar dispersing pressure ([3]; FIG. 5, crystals not produced by the inventive process, 2 bar): 80 μm | particle size (d50) at 1 bar ([3]; FIG. 6, crystals produced by the inventive process, 1 bar): 100 μm | particle size (d50) at 3 bar ([3]; FIG. 6, crystals produced by the inventive process, 3 bar): 73 μm | loss of d50 in pressure titration ([3]; FIG. 7, additional batch produced by the inventive process): around 35% | d50 after pressure titration ([3]; FIG. 7, additional batch produced by the inventive process, after pressure increase): around 67 μm | original d50 ([3]; FIG. 7, additional batch produced by the inventive process, before pressure increase): around 103 μm | d50 reduction in pressure titration test ([3]; FIG. 10, crystals produced by the inventive process, % of the original value): around 25% | particle thickness by SEM ([4]; FIG. 8, particles not produced by the inventive process): rather thin | particle size by SEM [4, 5]: around 100 μm | particle thickness by SEM [4, 5]: 10-20 μm

Cc1cc(C2=NOC(c3cc(Cl)cc(Cl)c3)(C(F)(F)F)C2)ccc1C(=O)NCC(=O)NCC(F)(F)F (stereo not drawn) [Example 5]
average d50 of resulting material ([1]; FIG. 15, crystallised from 5:3 toluene:ethyl acetate): 99 μm | x50/d50 particle size dimension at end of recycle loop [1]: approximately 50 μm | reduction in x50/d50 from the pressure titration from 1 bar to 3 bar [3]: approximately 20%
